Source: ChEMBL document CHEMBL1149765, “Anti-tumor 12-deoxyphorbol esters from Euphorbia cornigera” (Eur J Med Chem, 2008)
Converted amounts (≈) assume the structure as drawn.

How the values were obtained:
KB [1] = assay: Cytotoxicity against human KB cells by MTT assay; format: functional, cell-based
KB [2] = assay: Cytotoxicity against human KB cells assessed as necrotic cells at 1.0 ug/ml by trypan blue exclusion assay; format: functional
KB [3] = assay: Cytotoxicity against human KB cells assessed as viable cells at 1.0 ug/ml by trypan blue exclusion assay; format: functional; settings: read-out: Activity
KB [4] = assay: Cytotoxicity against human KB cells assessed as apoptotic cells at 1.0 ug/ml by trypan blue exclusion assay; format: functional
KB [5] = assay: Cytotoxicity against human KB cells assessed as apoptotic cells at 2.5 ug/ml by trypan blue exclusion assay; format: functional
KB [6] = assay: Inhibition of DNA synthesis in human KB cells assessed as ratio of DNA in treated to control cells at 1.0 ug/ml; format: functional
KB [7] = assay: Cytotoxicity against human KB cells assessed as viable cells at 5.0 ug/ml by trypan blue exclusion assay; format: functional; settings: read-out: Activity
KB [8] = assay: Cytotoxicity against human KB cells assessed as necrotic cells at 5.0 ug/ml by trypan blue exclusion assay; format: functional
KB [9] = assay: Inhibition of DNA synthesis in human KB cells assessed as 5-bromo-2'-deoxyuridin incorporation at 2.5 ug/ml; format: functional
KB [10] = assay: Inhibition of DNA synthesis in human KB cells assessed as 5-bromo-2'-deoxyuridin incorporation at 5.0 ug/ml; format: functional
KB [11] = assay: Cytotoxicity against human KB cells assessed as viable cells at 2.5 ug/ml by trypan blue exclusion assay; format: functional; settings: read-out: Activity
KB [12] = assay: Inhibition of DNA synthesis in human KB cells assessed as ratio of DNA in treated to control cells at 2.5 ug/ml; format: functional
KB [13] = assay: Cytotoxicity against human KB cells assessed as necrotic cells at 2.5 ug/ml by trypan blue exclusion assay; format: functional
KB [14] = assay: Cytotoxicity against human KB cells assessed as apoptotic cells at 5.0 ug/ml by trypan blue exclusion assay; format: functional
KB [15] = assay: Cytotoxicity against human KB cells assessed as necrotic cells at 0.3 ug/ml by trypan blue exclusion assay; format: functional
KB [16] = assay: Inhibition of DNA synthesis in human KB cells assessed as ratio of DNA in treated to control cells at 0.3 ug/ml; format: functional
KB [17] = assay: Cytotoxicity against human KB cells assessed as apoptotic cells at 0.3 ug/ml by trypan blue exclusion assay; format: functional
KB [18] = assay: Inhibition of DNA synthesis in human KB cells assessed as 5-bromo-2'-deoxyuridin incorporation at 0.3 ug/ml; format: functional
KB [19] = assay: Cytotoxicity against human KB cells assessed as viable cells at 0.3 ug/ml by trypan blue exclusion assay; format: functional; settings: read-out: Activity

SMILES: CC(=O)O[C@@]12C[C@@H](C)[C@@]3(O)[C@@H](C=C(COC(=O)c4ccccc4)C[C@]4(O)C(=O)C(C)=C[C@@H]34)[C@@H]1C2(C)C
- IC50 (KB [1]): 8.2 µg/mL (≈ 16.6 µM)

SMILES: CCCCCCCCCC(=O)OCC1=C[C@H]2[C@@H]3C(C)(C)[C@]3(OC(=O)CCCCCCCCC)C[C@@H](C)[C@]2(O)[C@@H]2C=C(C)C(=O)[C@@]2(O)C1
- Activity (KB [2]): 2%
- viability at 1 µg/mL (KB [3]): 58.8%
- Activity (KB [4]): 39.24%
- IC50 (KB [1]): 0.5 µg/mL (≈ 0.761 µM)
- Activity (KB [5]): 60.29%
- Ratio (KB [6]): 0.57
- viability at 5 µg/mL (KB [7]): 15.9%
- Activity (KB [8]): 6%
- inhibition at 2.5 µg/mL (KB [9]): 86%
- inhibition at 5 µg/mL (KB [10]): 27.9%
- viability at 2.5 µg/mL (KB [11]): 36.7%
- Ratio (KB [12]): 0.71
- Activity (KB [13]): 3%
- Activity (KB [14]): 78.13%

SMILES: CCCCCCCCCCCC(=O)O[C@@]12C[C@@H](C)[C@@]3(O)[C@@H](C=C(COC(=O)CCCCCCCCC)C[C@]4(O)C(=O)C(C)=C[C@@H]34)[C@@H]1C2(C)C
- Activity (KB [2]): 0%
- viability at 1 µg/mL (KB [3]): 78.8%
- Activity (KB [4]): 11.24%
- IC50 (KB [1]): 1 µg/mL (≈ 1.46 µM)
- Activity (KB [5]): 52.23%
- Ratio (KB [6]): 0.47
- viability at 5 µg/mL (KB [7]): 27.9%
- Activity (KB [8]): 2%
- inhibition at 2.5 µg/mL (KB [9]): 76%
- inhibition at 5 µg/mL (KB [10]): 25.9%
- viability at 2.5 µg/mL (KB [11]): 46.7%
- Ratio (KB [12]): 0.51
- Activity (KB [13]): 1%
- Activity (KB [14]): 70.13%

SMILES: COc1cccc2c1C(=O)c1c(O)c3c(c(O)c1C2=O)C[C@@](O)(C(=O)CO)C[C@@H]3O[C@H]1C[C@H](N)[C@H](O)[C@H](C)O1 [DOXORUBICIN]
- Activity (KB [15]): 1%
- Ratio (KB [16]): 0.57
- Activity (KB [17]): 61.33%
- inhibition at 0.3 µg/mL (KB [18]): 37.7%
- viability at 0.3 µg/mL (KB [19]): 37.7%

SMILES: CCCCCCCCCC(=O)OCC1=C[C@H]2[C@@H]3C(C)(C)[C@]3(OC(C)=O)C[C@@H](C)[C@]2(O)[C@@H]2C=C(C)C(=O)[C@@]2(O)C1
- IC50 (KB [1]): 8.5 µg/mL (≈ 15.6 µM)

SMILES: CCCCCCCCCC(=O)OCC1=C[C@H]2[C@@H]3C(C)(C)[C@]3(OC(=O)CCCCCCC)C[C@@H](C)[C@]2(O)[C@@H]2C=C(C)C(=O)[C@@]2(O)C1
- Activity (KB [2]): 0%
- viability at 1 µg/mL (KB [3]): 74.7%
- Activity (KB [4]): 25.23%
- IC50 (KB [1]): 0.8 µg/mL (≈ 1.27 µM)
- Activity (KB [5]): 34%
- Ratio (KB [6]): 0.87
- viability at 5 µg/mL (KB [7]): 26.1%
- Activity (KB [8]): 3%
- inhibition at 2.5 µg/mL (KB [9]): 85%
- inhibition at 5 µg/mL (KB [10]): 23%
- viability at 2.5 µg/mL (KB [11]): 65%
- Ratio (KB [12]): 0.71
- Activity (KB [13]): 1%
- Activity (KB [14]): 70.89%

SMILES: C/C=C(/C)C(=O)OCC1=C[C@H]2[C@@H]3C(C)(C)[C@]3(OC(=O)CCCCCCCCC)C[C@@H](C)[C@]2(O)[C@@H]2C=C(C)C(=O)[C@@]2(O)C1
- IC50 (KB [1]): 6.4 µg/mL (≈ 10.9 µM)

SMILES: COc1cccc2c1C(=O)c1c(O)c3c(c(O)c1C2=O)C[C@@](O)(C(=O)CO)C[C@@H]3O[C@H]1C[C@H](N)[C@H](O)[C@H](C)O1.Cl [DOXORUBICIN HYDROCHLORIDE]
- IC50 (KB [1]): 10 µg/mL

SMILES: CCCCCCCCCC(=O)OCC1=C[C@H]2[C@@H]3C(C)(C)[C@]3(OC(=O)CCCCC)C[C@@H](C)[C@]2(O)[C@@H]2C=C(C)C(=O)[C@@]2(O)C1
- IC50 (KB [1]): 7.2 µg/mL (≈ 12 µM)

SMILES: CCCCCCCCCC(=O)OCC1=C[C@H]2[C@@H]3C(C)(C)[C@]3(OC(=O)CCC)C[C@@H](C)[C@]2(O)[C@@H]2C=C(C)C(=O)[C@@]2(O)C1
- IC50 (KB [1]): 7.8 µg/mL (≈ 13.6 µM)

SMILES: CC(=O)O[C@@]12C[C@@H](C)[C@@]3(O)[C@@H](C=C(CO)C[C@]4(O)C(=O)C(C)=C[C@@H]34)[C@@H]1C2(C)C [PROSTRATIN]
- IC50 (KB [1]): 1000 µg/mL (≈ 2560 µM)

SMILES: COc1ccc(C(=O)OCC2=C[C@H]3[C@@H]4C(C)(C)[C@]4(OC(C)=O)C[C@@H](C)[C@]3(O)[C@@H]3C=C(C)C(=O)[C@@]3(O)C2)cc1
- IC50 (KB [1]): 8.5 µg/mL (≈ 16.2 µM)

SMILES: C/C=C(\C)C(=O)OCC1=C[C@H]2[C@@H]3C(C)(C)[C@]3(OC(=O)CCCCCCCCC)C[C@@H](C)[C@]2(O)[C@@H]2C=C(C)C(=O)[C@@]2(O)C1
- IC50 (KB [1]): 7.6 µg/mL (≈ 13 µM)
